# In US11547681B2, “N-acylethanolamide derivatives and uses thereof” (ELIEM THERAPEUTICS, INC., priority 2016, dated 2023):
# Assay: in vitro
# Conditions: for Concentration of analyte I-9 / Concentration of analyte PEA / Measured concentration of analyte PEA, 0 min / Measured concentration of analyte PEA, 10 min / Measured concentration of analyte PEA, 20 min / Measured concentration of analyte PEA, 30 min / Measured concentration of analyte PEA, 60 min / % Remaining of Initial (n = 1) / % Remaining of Initial, 0 min / % Remaining of Initial, 10 min / % Remaining of Initial, 20 min / % Remaining of Initial, 30 min / % Remaining of Initial, 60 min: 1 μM; for % Remaining of Initial (n = 1) / % Remaining of Initial, 0 min / % Remaining of Initial, 10 min / % Remaining of Initial, 20 min / % Remaining of Initial, 30 min / % Remaining of Initial, 60 min / microsomal CLint at 1 μM / half-life at 1 μM / microsomal CLint / half-life: microsomes
# Method: The reaction mixture, minus cofactors, was prepared as described below. The test article was added into the reaction mixture at a final concentration of 1 μM. […] An aliquot of the reaction mixture (without cofactor) was equilibrated in a shaking water bath at 37° C. for 3 minutes. The reaction was initiated by the addition of cofactor, and the mixture was incubated in a shaking water bath at 37° C. Aliquots (100 μL) were withdrawn at 0, 10, 20, 30, and 60 minutes. All samples were immediately combined with 400 μL of ice-cold 50/50 acetonitrile/H2O containing 0.1% formic acid and internal standard to terminate the reaction. The samples were then mixed and centrifuged to precipitate proteins. Calibration standards were prepared in matched matrix. All samples and standards were assayed by LC-MS/MS using electrospray ionization for both the dosed prodrug I-9 and the expected drug (PEA). Analytical conditions are outlined in Appendix 4-1. The test article concentration at each time point was compared to the test article concentration at time 0 to determine the percent remaining at each time point. Half-lives were calculated using GraphPad software, fitting to a single-phase exponential decay equation.
# Reaction mixture, minus cofactors, was prepared as described below. Test article was added into the reaction mixture at a final concentration of 1 μM. […] An aliquot of the reaction mixture (without cofactor) was equilibrated in a shaking water bath at 37° C. for 3 minutes. The reaction was initiated by the addition of cofactor, and the mixture was incubated in a shaking water bath at 37° C. Aliquots (100 μL) were withdrawn at 0, 10, 20, 30, and 60 minutes. Test article samples were immediately combined with 300 μL of ice-cold acetonitrile containing 1% formic acid. Control samples were immediately combined with 400 μL of ice-cold 50/50 acetonitrile (ACN)/dH2O containing 0.1% formic acid and internal standard to terminate the reaction. Samples were then mixed and centrifuged to precipitate proteins. Calibration standards were prepared in matched matrix. Samples and standards were assayed by LC-MS/MS using electrospray ionization for both dosed prodrug and expected drug (PEA). Analytical conditions are outlined in Appendix 8-1. Test article concentration at each time point was compared to test article concentration at time 0 to determine the percent remaining at each time point. Half-lives were calculated using GraphPad software, fitting to a single-phase exponential decay equation.
# Reaction mixture, minus cofactors, was prepared as described below. Test article was added into the reaction mixture at a final concentration of 1 μM. […] An aliquot of the reaction mixture (without cofactor) was equilibrated in a shaking water bath at 37° C. for 5 minutes. Reaction was initiated by the addition of cofactor, and the mixture was incubated in a shaking water bath at 37° C. Aliquots (100 μL) were withdrawn at 0, 10, 20, 30, and 60 minutes. Test article samples were immediately combined with 300 μL of ice-cold acetonitrile containing 1% formic acid. Control samples were immediately combined with 400 μL of ice-cold 50/50 acetonitrile (ACN)/dH2O containing 0.1% formic acid and internal standard to terminate the reaction. Samples were then mixed and centrifuged to precipitate proteins. Calibration standards were prepared in matched matrix. Samples and standards were assayed by LC-MS/MS using electrospray ionization for both the dosed prodrug and the expected drug (PEA). Analytical conditions are outlined in Appendix 10-1. Test article concentration at each time point was compared to the test article concentration at time 0 to determine the percent remaining at each time point. Half-lives were calculated using GraphPad software, fitting to a single-phase exponential decay equation.
# Reaction mixture, minus cofactors, was prepared as described below. Test article was added into the reaction mixture at a final concentration of 1 μM.
# [1] = male, Sprague-Dawley, rat, 0 min
# [2] = male, Sprague-Dawley, rat, 10 min
# [3] = male, Sprague-Dawley, rat, 20 min
# [4] = male, Sprague-Dawley, rat, 30 min
# [5] = male, Sprague-Dawley, rat, 60 min
# [6] = male, Sprague-Dawley, rat, 0.5 h
# [7] = male, Sprague-Dawley, rat, Half-life
# [8] = male, Sprague-Dawley, rat, CLint
structure (smiles),measurement,setting,value
CCCCCCCCCCCCCCCC(=O)NCCOC(=O)CCC(=O)OCC(O)CO (centres unmarked) [Compound I-9],Concentration of analyte I-9,"both, human, 0 min",180 nM
same,Concentration of analyte PEA,"both, human, 0 min",830 nM
same,"Measured concentration of analyte PEA, 0 min","both, human, 0 min",0.47 µM
same,Concentration of analyte I-9,"both, human, 10 min",2.1 nM
same,Concentration of analyte PEA,"both, human, 10 min",600 nM
same,"Measured concentration of analyte PEA, 10 min","both, human, 10 min",0.39 µM
same,Concentration of analyte I-9,"both, human, 20 min",0 nM
same,Concentration of analyte PEA,"both, human, 20 min",510 nM
same,"Measured concentration of analyte PEA, 20 min","both, human, 20 min",0.22 µM
same,Concentration of analyte I-9,"both, human, 30 min",0 nM
same,Concentration of analyte PEA,"both, human, 30 min",410 nM
same,"Measured concentration of analyte PEA, 30 min","both, human, 30 min",0.16 µM
same,Concentration of analyte I-9,"both, human, 60 min",0 nM
same,Concentration of analyte PEA,"both, human, 60 min",200 nM
same,"Measured concentration of analyte PEA, 60 min","both, human, 60 min",0.058 µM
same,% Remaining of Initial (n = 1),"both, human, 0 h",100%
same,"% Remaining of Initial, 0 min","both, human, 0 h",100%
same,% Remaining of Initial (n = 1),"both, human, 10 min",1.2%
same,"% Remaining of Initial, 10 min","both, human, 10 min",<1.0%
same,% Remaining of Initial (n = 1),"both, human, 20 min",<1.0%
same,"% Remaining of Initial, 20 min","both, human, 20 min",<1.0%
same,% Remaining of Initial (n = 1),"both, human, 0.5 h",<1.0%
same,"% Remaining of Initial, 30 min","both, human, 0.5 h",<1.0%
same,% Remaining of Initial (n = 1),"both, human, 1 h",<1.0%
same,"% Remaining of Initial, 60 min","both, human, 1 h",<1.0%
same,microsomal CLint at 1 μM,"both, human, CLint, calculated value in parentheses",888 µL/min/mg
same,half-life at 1 μM,"both, human, Half-Life",< 10 min
same,half-life at 1 μM,"both, human, Half-life",< 1 min
same,half-life at 1 μM,"both, human, Half-life, calculated value in parentheses",1.6 min
same,Concentration of analyte I-9,[1],210 nM
same,Concentration of analyte PEA,[1],350 nM
same,"Measured concentration of analyte PEA, 0 min",[1],0.22 µM
same,Concentration of analyte I-9,[2],8.5 nM
same,Concentration of analyte PEA,[2],160 nM
same,"Measured concentration of analyte PEA, 10 min",[2],0.066 µM
same,Concentration of analyte I-9,[3],0 nM
same,Concentration of analyte PEA,[3],76 nM
same,"Measured concentration of analyte PEA, 20 min",[3],0.017 µM
same,Concentration of analyte I-9,[4],0 nM
same,Concentration of analyte PEA,[4],27 nM
same,"Measured concentration of analyte PEA, 30 min",[4],0 µM
same,Concentration of analyte I-9,[5],0 nM
same,Concentration of analyte PEA,[5],3 nM
same,"Measured concentration of analyte PEA, 60 min",[5],0 µM
same,% Remaining of Initial (n = 1),"male, Sprague-Dawley, rat, 0 h",100%
same,"% Remaining of Initial, 0 min","male, Sprague-Dawley, rat, 0 h",100%
same,% Remaining of Initial (n = 1),[2],4.0%
same,"% Remaining of Initial, 10 min",[2],1.9%
same,% Remaining of Initial (n = 1),[3],<1.0%
same,"% Remaining of Initial, 20 min",[3],<1.0%
same,% Remaining of Initial (n = 1),[6],<1.0%
same,"% Remaining of Initial, 30 min",[6],<1.0%
same,% Remaining of Initial (n = 1),"male, Sprague-Dawley, rat, 1 h",<1.0%
same,"% Remaining of Initial, 60 min","male, Sprague-Dawley, rat, 1 h",<1.0%
same,microsomal CLint at 1 μM,"male, Sprague-Dawley, rat, CLint, calculated value in parentheses",642 µL/min/mg
same,half-life at 1 μM,"male, Sprague-Dawley, rat, Half-Life",< 10 min
same,half-life at 1 μM,[7],1.8 min
same,half-life at 1 μM,"male, Sprague-Dawley, rat, Half-life, calculated value in parentheses",2.2 min
CCCCCCCCCCCCCCCC(=O)NCCOC(=O)CCC(=O)OC[C@H]1O[C@@](CO)(O[C@H]2O[C@H](CO)[C@@H](O)[C@H](O)[C@H]2O)[C@@H](O)[C@@H]1O [Compound I-7],"Measured concentration of analyte PEA, 0 min","both, human, 0 min",0.22 µM
same,"Measured concentration of analyte PEA, 10 min","both, human, 10 min",0.39 µM
same,"Measured concentration of analyte PEA, 20 min","both, human, 20 min",0.28 µM
same,"Measured concentration of analyte PEA, 30 min","both, human, 30 min",0.22 µM
same,"Measured concentration of analyte PEA, 60 min","both, human, 60 min",0.080 µM
same,"% Remaining of Initial, 0 min","both, human, 0 h",100%
same,"% Remaining of Initial, 10 min","both, human, 10 min",4.6%
same,"% Remaining of Initial, 20 min","both, human, 20 min",1.3%
same,"% Remaining of Initial, 30 min","both, human, 0.5 h",<1.0%
same,"% Remaining of Initial, 60 min","both, human, 1 h",<1.0%
same,microsomal CLint at 1 μM,"both, human, CLint",612 µL/min/mg
same,half-life at 1 μM,"both, human, Half-life",2.3 min
same,"Measured concentration of analyte PEA, 0 min",[1],0.054 µM
same,"Measured concentration of analyte PEA, 10 min",[2],0.14 µM
same,"Measured concentration of analyte PEA, 20 min",[3],0.087 µM
same,"Measured concentration of analyte PEA, 30 min",[4],0.045 µM
same,"Measured concentration of analyte PEA, 60 min",[5],0.0085 µM
same,"% Remaining of Initial, 0 min","male, Sprague-Dawley, rat, 0 h",100%
same,"% Remaining of Initial, 10 min",[2],45%
same,"% Remaining of Initial, 20 min",[3],17%
same,"% Remaining of Initial, 30 min",[6],11%
same,"% Remaining of Initial, 60 min","male, Sprague-Dawley, rat, 1 h",2.1%
same,microsomal CLint at 1 μM,[8],164 µL/min/mg
same,half-life at 1 μM,[7],8.5 min
"C[C@]12CC[C@H]3[C@@H](CCC4=CC(=O)CC[C@@]43C)[C@@H]1CC[C@@H]2O [Testosterone, testosterone, reference compound]","Clint, control compound",Example 4 control run,0.0792 ml/min/mg protein
same,"Half-life, control compound",Example 4 control run,17 min
same,microsomal CLint,"both, human, CLint, Control Compound, Human liver microsomes",66.7 µL/min/mg
same,microsomal CLint,"both, human, CLint, Control compound, Human liver microsomes",50.5 µL/min/mg
same,microsomal CLint,"both, human, CLint, Human liver microsomes, control compound",66.7 µL/min/mg
same,microsomal CLint,"both, human, CLint, control compound, human liver microsomes",151 µL/min/mg
same,half-life,"both, human, Half-life, Control Compound, Human liver microsomes",21 min
same,half-life,"both, human, Half-life, Control compound, Human liver microsomes",27 min
same,half-life at 1 μM,"both, human, Half-life, Human liver microsomes",21 min
same,microsomal CLint,"male, Sprague-Dawley, CLint, Control Compound, Rat liver microsomes",1010 µL/min/mg
same,microsomal CLint,"male, Sprague-Dawley, CLint, Control compound, Rat liver microsomes",760 µL/min/mg
same,microsomal CLint,"male, Sprague-Dawley, CLint, Rat liver microsomes, control compound",1010 µL/min/mg
same,microsomal CLint,"male, Sprague-Dawley, CLint, control compound, rat liver microsomes",911 µL/min/mg
same,microsomal CLint,"male, Sprague-Dawley, Clint, control compound, Example 4 control run",1030 µL/min/mg
same,half-life,"male, Sprague-Dawley, Half-life, Control Compound, Rat liver microsomes",1.4 min
same,half-life,"male, Sprague-Dawley, Half-life, Control compound, Rat liver microsomes",1.8 min
same,half-life at 1 μM,"male, Sprague-Dawley, Half-life, Rat liver microsomes",1.4 min
same,half-life,"male, Sprague-Dawley, Half-life, control compound, Example 4 control run",1.4 min
same,half-life,"male, Sprague-Dawley, Half-life, control compound, rat liver microsomes",1.5 min
CCCCCCCCCCCCCCCC(=O)NCCOC(=O)CCC(=O)OCC(COC(=O)CCC)OC(=O)CCC (centres unmarked) [Compound I-11],"Measured concentration of analyte PEA, 0 min","both, human, 0 min",0.046 µM
same,"Measured concentration of analyte PEA, 10 min","both, human, 10 min",0.29 µM
same,"Measured concentration of analyte PEA, 20 min","both, human, 20 min",0.20 µM
same,"Measured concentration of analyte PEA, 30 min","both, human, 30 min",0.16 µM
same,"Measured concentration of analyte PEA, 60 min","both, human, 60 min",0.057 µM
same,"% Remaining of Initial, 0 min","both, human, 0 h",100%
same,"% Remaining of Initial, 10 min","both, human, 10 min",3.1%
same,"% Remaining of Initial, 20 min","both, human, 20 min",<1.0%
same,"% Remaining of Initial, 30 min","both, human, 0.5 h",<1.0%
same,"% Remaining of Initial, 60 min","both, human, 1 h",<1.0%
same,microsomal CLint at 1 μM,"both, human, CLint",696 µL/min/mg
same,half-life at 1 μM,"both, human, Half-life",2 min
same,"Measured concentration of analyte PEA, 0 min",[1],0.023 µM
same,"Measured concentration of analyte PEA, 10 min",[2],0.048 µM
same,"Measured concentration of analyte PEA, 20 min",[3],0.031 µM
same,"Measured concentration of analyte PEA, 30 min",[4],0.0086 µM
same,"Measured concentration of analyte PEA, 60 min",[5],0 µM
same,"% Remaining of Initial, 0 min","male, Sprague-Dawley, rat, 0 h",100%
same,"% Remaining of Initial, 10 min",[2],3.3%
same,"% Remaining of Initial, 20 min",[3],<1.0%
same,"% Remaining of Initial, 30 min",[6],<1.0%
same,"% Remaining of Initial, 60 min","male, Sprague-Dawley, rat, 1 h",<1.0%
same,microsomal CLint at 1 μM,[8],681 µL/min/mg
same,half-life at 1 μM,[7],2 min
